Assay results taken from patent US10494363B2, “Non-steroidal glucocorticoid receptor modulators for local drug delivery” (LEO PHARMA A/S, priority 2015, dated 2019).

Columns and labels:
[1] = Human liver microsomes (HLM) assay; type: in vitro ADME; settings: hepatic extraction ratio; 0.5 μM compound, 0.5 mg/mL microsomes, NADPH, 37° C.
Protocol: Incubations of test compounds in DMSO, diluted with phosphate buffer, pH 7.4, at 0.5 μM were carried out with human liver microsomes (0.5 mg/mL). The percentage of organic solvent in the incubations was 1%. The human liver microsomal suspension in phosphate buffer was mixed with NADPH (1 mM) and preheated to 37° C. before test compound was added. Aliquots were taken at 0, 5, 10, 20 and 30 minutes, and reactions were terminated by addition of methanol containing analytical internal standard (IS).
The results were expressed as apparent clearance (Clapp) (mL/min/kg) and hepatic extraction ratio (Eh) (%) calculated from the rate constant (k) (min^−1) of test compound depletion.

[2] = tested on: TNF alpha release from human PBMCs; assay: Inhibition of TNF alpha release from human PBMCs; type: cell-based; settings: PBMC, LPS 1 μg/ml, 18 hours, AlphaLISA
Protocol: PBMC were isolated from fresh buffy coats by density centrifugation using lymphoprep (Medinor AB, cat no 1019818) tubes. Isolated PBMCs were washed in assay medium (RPMI1640 with 25 mM HEPES, 1% pen/strep, 200 mM L glutamine and 10% Foetal calf serum). Surplus PBMCs were frozen in medium containing extra 10% foetal calf serum and 5% DMSO. On the assay day, fresh cells or cryopreserved cells after thawing were washed in serum free medium (RPMI1640 with 25 mM HEPES, 1% pen/strep, 200 mM L glutamine and 0.5% human serum albumin) and counted, in order to determine the fraction of living cells (generally >95%).
Test compounds were diluted in DMSO over seven orders of magnitude, further diluted in serum-free medium and distributed into wells of 384 well tissue culture plates. LPS was added to a final concentration of 1 μg/ml to the cells. Immediately thereafter titrated test compounds were added and incubated for 18 hours at 37° C.
The level of TNF-a in the culture supernatant was quantitated by AlphaLISA (Perkin Elmer). 2-(3,5-dichloro-4-pyridinyl)-1-(7-methoxyspiro[1,3-benzodioxole-2,1′-cyclopentan]-4-yl)-ethanone (CAS 185406-34-2) at 100×IC50 was used to define the assay window.
Data were processed by sigmoidal curve fitting. EC50 and Emax were determined from the curve fits.

[3] = target: T1, glucocorticoid receptor (GR), recombinant full-length receptor protein (Homo sapiens, UniProt P04150); assay: Glucocorticoid receptor binding assay (fluorescence polarization kit); settings: 4 nM receptor, 2.5 nM Fluormone GS1 tracer, 2h room temperature, read-out: GR binding ABS IC50
T1 construct: 4 nM recombinant, full-length receptor protein was incubated with increasing concentrations of GR ligand; purchased Life Technologies A-15897
T1 sequence (P04150 1-777): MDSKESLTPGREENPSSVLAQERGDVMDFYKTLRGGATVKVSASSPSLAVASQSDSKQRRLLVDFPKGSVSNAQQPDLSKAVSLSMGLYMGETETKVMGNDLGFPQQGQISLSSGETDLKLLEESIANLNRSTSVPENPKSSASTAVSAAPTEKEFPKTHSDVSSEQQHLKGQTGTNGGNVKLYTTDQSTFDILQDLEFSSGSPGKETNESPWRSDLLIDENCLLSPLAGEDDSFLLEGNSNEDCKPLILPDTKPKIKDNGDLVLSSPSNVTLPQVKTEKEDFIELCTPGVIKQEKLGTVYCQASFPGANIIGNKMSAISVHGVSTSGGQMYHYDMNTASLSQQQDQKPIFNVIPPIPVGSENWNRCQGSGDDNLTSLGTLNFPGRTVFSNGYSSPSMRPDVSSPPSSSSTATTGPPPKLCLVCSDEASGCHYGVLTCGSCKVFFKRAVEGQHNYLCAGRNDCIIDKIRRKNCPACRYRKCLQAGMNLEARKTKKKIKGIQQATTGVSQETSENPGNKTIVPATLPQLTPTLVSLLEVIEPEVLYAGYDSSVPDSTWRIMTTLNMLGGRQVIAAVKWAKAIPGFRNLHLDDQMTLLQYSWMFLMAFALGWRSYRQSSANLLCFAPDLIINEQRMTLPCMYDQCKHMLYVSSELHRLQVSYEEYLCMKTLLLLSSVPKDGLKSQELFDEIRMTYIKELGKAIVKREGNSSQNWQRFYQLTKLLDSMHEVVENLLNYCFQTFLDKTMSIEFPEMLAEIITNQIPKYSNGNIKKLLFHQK
Protocol: Test compounds were diluted in DMSO over seven orders of magnitude, further diluted in assay buffer and distributed into 384-well plates. The sensitivity limit of this assay was 2-4 nM.
Data were processed by sigmoidal curve fitting.
Absolute (Abs) IC50 and Emax were determined from the curve fits.

| Structure (SMILES) | HLM assay Eh (%) [1] | EC50 [2] [nM] | IC50 [3] [nM] |
| --- | --- | --- | --- |
| C[C@H](NC(=O)c1cnco1)[C@H](Oc1ccc(C(=O)N[C@H]2CCCN(C(=O)[C@H]3COC(=O)C3)C2)nc1)c1ccc(C2CC2)cc1 [Compound 9, N-[(1S,2R)-2-(4-cyclopropylphenyl)-1-methyl-2-[[6-[[(3S)-1-[(3R)-5-oxotetrahydrofuran-3-carbonyl]-3-piperidyl]carbamoyl]-3-pyridyl]oxy]ethyl]oxazole-5-carboxamide] | * (extraction ratio (Eh)>90%) | < 100 | 100 to 300 |
| CC[C@H](O)C(=O)N[C@@H](C)[C@H](Oc1ccc(C(=O)N[C@H]2CCCN(C(=O)[C@H]3COC(=O)C3)C2)nc1)c1ccc(C2CC2)cc1 [Compound 10, 5-[(1R,2S)-1-(4-cyclopropylphenyl)-2-[[(2S)-2-hydroxybutanoyl]amino]propoxy]-N-[(3S)-1-[(3R)-5-oxotetrahydrofuran-3-carbonyl]-3-piperidyl]pyridine-2-carboxamide] | * (extraction ratio (Eh)>90%) | < 100 | 100 to 300 |
| C[C@H](NC(=O)[C@@H](C)O)[C@H](Oc1ccc(C(=O)N[C@H]2CCCN(C(=O)[C@H]3COC(=O)C3)C2)nc1)c1ccc(C2CC2)cc1 [Compound 11, 5-[(1R,2S)-1-(4-cyclopropylphenyl)-2-[[(2R)-2-hydroxypropanoyl]amino]propoxy]-N-[(3S)-1-[(3R)-5-oxotetrahydrofuran-3-carbonyl]-3-piperidyl]pyridine-2-carboxamide] | * (extraction ratio (Eh)>90%) | < 100 | > 300 |
| C[C@H](NC(=O)c1ccno1)[C@H](Oc1ccc(C(=O)N[C@H]2CCCN(C(=O)[C@H]3COC(=O)C3)C2)nc1)c1ccc(C2CC2)cc1 [Compound 12, N-[(1S,2R)-2-(4-cyclopropylphenyl)-1-methyl-2-[[6-[[(3S)-1-[(3R)-5-oxotetrahydrofuran-3-carbonyl]-3-piperidyl]carbamoyl]-3-pyridyl]oxy]ethyl]isoxazole-5-carboxamide] | * (extraction ratio (Eh)>90%) | < 100 | < 100 |
| CC[C@@H](O)C(=O)N[C@@H](C)[C@H](Oc1ccc(C(=O)N[C@H]2CCCN(C(=O)[C@H]3COC(=O)C3)C2)nc1)c1ccc(C2CC2)cc1 [Compound 13, 5-[(1R,2S)-1-(4-cyclopropylphenyl)-2-[[(2R)-2-hydroxybutanoyl]amino]propoxy]-N-[(3S)-1-[(3R)-5-oxotetrahydrofuran-3-carbonyl]-3-piperidyl]pyridine-2-carboxamide] | * (extraction ratio (Eh)>90%) | < 100 | 100 to 300 |
| COCC(=O)N[C@@H](C)[C@H](Oc1ccc(C(=O)N[C@H]2CCCN(C(=O)[C@H]3COC(=O)C3)C2)nc1)c1ccc(C2CC2)cc1 [Compound 14, 5-[(1R,2S)-1-(4-cyclopropylphenyl)-2-[(2-methoxyacetyl)amino]propoxy]-N-[(3S)-1-[(3R)-5-oxotetrahydrofuran-3-carbonyl]-3-piperidyl]pyridine-2-carboxamide] | * (extraction ratio (Eh)>90%) | < 100 | 100 to 300 |
| C[C@H](NC(=O)C(C)(C)O)[C@H](Oc1ccc(C(=O)N[C@H]2CCCN(C(=O)[C@H]3COC(=O)C3)C2)nc1)c1ccc(C2CC2)cc1 [Compound 15, 5-[(1R,2S)-1-(4-cyclopropylphenyl)-2-[(2-hydroxy-2-methyl-propanoyl)amino]propoxy]-N-[(3S)-1-[(3R)-5-oxotetrahydrofuran-3-carbonyl]-3-piperidyl]pyridine-2-carboxamide] | ** (50%<extraction ratio (Eh)<90%) | < 100 | > 300 |
| C[C@H](NC(=O)CCO)[C@H](Oc1ccc(C(=O)N[C@H]2CCCN(C(=O)[C@H]3COC(=O)C3)C2)nc1)c1ccc(C2CC2)cc1 [Compound 16, 5-[(1R,2S)-1-(4-cyclopropylphenyl)-2-(3-hydroxypropanoylamino)propoxy]-N-[(3S)-1-[(3R)-5-oxotetrahydrofuran-3-carbonyl]-3-piperidyl]pyridine-2-carboxamide] | * (extraction ratio (Eh)>90%) | < 100 | > 300 |
| C[C@H](NC(=O)C1(O)CCC1)[C@H](Oc1ccc(C(=O)N[C@H]2CCCN(C(=O)[C@H]3COC(=O)C3)C2)nc1)c1ccc(C2CC2)cc1 [Compound 17, 5-[(1R,2S)-1-(4-cyclopropylphenyl)-2-[(1-hydroxycyclobutanecarbonyl)amino]propoxy]-N-[(3S)-1-[(3R)-5-oxotetrahydrofuran-3-carbonyl]-3-piperidyl]pyridine-2-carboxamide] | * (extraction ratio (Eh)>90%) | < 100 | 100 to 300 |
| C[C@H](NC(=O)C1(O)CC1)[C@H](Oc1ccc(C(=O)N[C@H]2CCCN(C(=O)[C@H]3COC(=O)C3)C2)nc1)c1ccc(C2CC2)cc1 [Compound 18, 5-[(1R,2S)-1-(4-cyclopropylphenyl)-2-[(1-hydroxycyclopropanecarbonyl)amino]propoxy]-N-[(3S)-1-[(3R)-5-oxotetrahydrofuran-3-carbonyl]-3-piperidyl]pyridine-2-carboxamide] | * (extraction ratio (Eh)>90%) | < 100 | 100 to 300 |
| C[C@H](NC(=O)c1cocn1)[C@H](Oc1ccc(C(=O)N[C@H]2CCCN(C(=O)[C@H]3COC(=O)C3)C2)nc1)c1ccc(C2CC2)cc1 [Compound 19, N-[(1S,2R)-2-(4-cyclopropylphenyl)-1-methyl-2-[[6-[[(3S)-1-[(3R)-5-oxotetrahydrofuran-3-carbonyl]-3-piperidyl]carbamoyl]-3-pyridyl]oxy]ethyl]oxazole-4-carboxamide] | * (extraction ratio (Eh)>90%) | < 100 | < 100 |
| C[C@H](NC(=O)[C@@H]1CCCO1)[C@H](Oc1ccc(C(=O)N[C@H]2CCCN(C(=O)[C@H]3COC(=O)C3)C2)nc1)c1ccc(C2CC2)cc1 [Compound 20, 5-[(1R,2S)-1-(4-cyclopropylphenyl)-2-[[(2S)-tetrahydrofuran-2-carbonyl]amino]propoxy]-N-[(3S)-1-[(3R)-5-oxotetrahydrofuran-3-carbonyl]-3-piperidyl]pyridine-2-carboxamide] | * (extraction ratio (Eh)>90%) | < 100 | 100 to 300 |
| C[C@H](NC(=O)[C@H]1CCCO1)[C@H](Oc1ccc(C(=O)N[C@H]2CCCN(C(=O)[C@H]3COC(=O)C3)C2)nc1)c1ccc(C2CC2)cc1 [Compound 22, 5-[(1R,2S)-1-(4-cyclopropylphenyl)-2-[[(2R)-tetrahydrofuran-2-carbonyl]amino]propoxy]-N-[(3S)-1-[(3R)-5-oxotetrahydrofuran-3-carbonyl]-3-piperidyl]pyridine-2-carboxamide] | * (extraction ratio (Eh)>90%) | < 100 | < 100 |
| C[C@H](NC(=O)c1ccon1)[C@H](Oc1ccc(C(=O)N[C@H]2CCCN(C(=O)[C@H]3COC(=O)C3)C2)nc1)c1ccc(C2CC2)cc1 [Compound 23, N-[(1S,2R)-2-(4-cyclopropylphenyl)-1-methyl-2-[[6-[[(3S)-1-[(3R)-5-oxotetrahydrofuran-3-carbonyl]-3-piperidyl]carbamoyl]-3-pyridyl]oxy]ethyl]isoxazole-3-carboxamide] | * (extraction ratio (Eh)>90%) | < 100 | < 100 |
